Experiments:
APOE4 = assay: Western blot of APOE4 protein in IMR-32 cells; format: cell-based, human; conditions: 150 ppb
Experimental: IMR-32 cells were seeded on 6-well plates and then treated with control and various compounds for 6 hours and 24 hours, as described above. After treatments, cells were rinsed with ice-cold PBS and lysed in ice-cold RIPA buffer containing complete proteinase and phosphatase inhibitors (Thermo-Fisher Scientific, Waltham, Mass.) on ice for 30 min Cell lysates were collected using a cell scraper and transfer pipette and then centrifuged at 12000×g for 30 min at 4° C. to remove the DNA pellet and obtain the protein extract. Protein levels in the supernatant of these cell lysates were determined using the Pierce Micro-BCA protein assay kit (Thermo Scientific-Piece Biotechnology, Rockford, Ill.) according to the manufacturer's protocol […]
Positive signals on the membrane blots were detected using Amersham's enhanced chemiluminescence (ECL) Western Blotting Prime Detection reagents (GE healthcare Lifescience, Pittsburgh, Pa.). Images of these luminescence signals on the membrane blots were captured using the LI-COR Odyssey Fc Image system (Lincoln, Nebr.). […] Protein band densities in the Western blots were determined using the Li—COR Image studio software or NIH ImageJ software, and then normalized by ACTB protein level in each sample. […]

[1] = test system: Notch signaling molecules; assay: Microarray expression profiles of 65 Notch signaling molecules in APP/PS1 mice; format: in vivo, mouse; conditions: microarray heatmap, 5 control and 6 Compound C treated APP/PS1 mice
Experimental: To further investigate potential toxic effects of compound on the Notch signaling, microarray analysis was performed. Expression of Notch signaling molecules in the brains of Compound C-treated APP/PS1 mice was analyzed. […] Brain tissues were collected and subjected to microarray analysis. The transcription profiles of 65 Notch receptor signaling (based GO search) related genes were pulled out from the original microarray datasets, and then subjected to unsupervised hierarchical clustering analysis based on arrays (animals) using GeneSpring 13.0 software (Agilent Technologies, Inc.), to generate the heatmap of these gene expression (see FIG. 19). In the heatmap, gene expression levels (normalized by Actb) were shown in color intensity that reflect the expression changes compared to mean value of each gene, where blue, red or yellow colors represent decreased, increased or no change in the level of expression intensity, respectively. The dendogram on the top reflects the extent of similarity of expression profiles between animals.

[2] = test system: phosphorylated FOXO3 in AML-12 cells; assay: Phosphorylated FOXO in AML-12 liver cells; format: cell-based, mouse; conditions: 150 ppb, 6 hours and 24 hours
Experimental: Expression of phosphorylated FOXO1/3/4 in a non-neuronal mouse AML-12 liver cell line was examined Tests were performed at the same time and under the same experimental conditions as the human IMR-32 cells.

[3] = test system: NOTCH signaling molecules in IMR-32 cells; assay: QRT-PCR of key NOTCH signaling molecules in IMR-32 cells; format: cell-based, human; conditions: 150 ppb; for HER2 mRNA expression (mean ± sem) / HES1 mRNA expression (mean ± sem) / HEY1 mRNA expression (mean ± sem) / NFKB1 mRNA expression (mean ± sem) / NFKB2 mRNA expression (mean ± sem) / NOTCH 1 mRNA expression (mean ± sem) / NOTCH 2 mRNA expression (mean ± sem) / NOTCH 3 mRNA expression (mean ± sem) / RBPJ mRNA expression (mean ± sem): control 100
Experimental: QRT-PCR analysis of several Notch signaling molecules was performed in IMR-32 cells to test if Compound C is toxic to the Notch signaling in vitro. In brief, IMR-32 cells were treated with a water control and 150 ppb Compound C in 10% FBS containing MEM media for 6 hours, 24 hours, and 48 hours. These molecules were selected based on the IPA GO search.

## C[Se]C[C@H]1O[C@@H](n2cnc3c(N)ncnc32)C(O)C1O (stereo in doubt) [Compound C, 5′-deoxy-5′-methylselenoadenosine]
APOE4; 6 hours
  APOE4 protein levels: not for 6 hour
APOE4; 24 hours
  APOE4 protein levels: markedly decreased
[1]
  expression levels of Notch 1-4, RBPJ, Hey1, Hes1, Hey2 and other Notch signaling molecules: did not have obvious change
[2]
  phosphorylation of FOXO3: did not affect
[3]; 6 hours treatment (cell spans control and #C)
  NOTCH 4 mRNA expression: Undetected
[3]; 6 hours treatment
  HER2 mRNA expression (mean ± sem): 96 ± 4 (4)
  HES1 mRNA expression (mean ± sem): 101 ± 6 (4)
  HEY1 mRNA expression (mean ± sem): 120 ± 9 (4)
  NFKB1 mRNA expression (mean ± sem): 112 ± 7 (4)
  NFKB2 mRNA expression (mean ± sem): 103 ± 7 (4)
  NOTCH 1 mRNA expression (mean ± sem): 94 ± 7 (4)
  NOTCH 2 mRNA expression (mean ± sem): 95 ± 16 (4)
  NOTCH 3 mRNA expression (mean ± sem): 95 ± 7 (4)
  RBPJ mRNA expression (mean ± sem): trend of increased expression
[3]; 6 hours treatment, listed as #C
  RBPJ mRNA expression (mean ± sem): 144 ± 12 (4)
[3]; 6 hours, 24 hours and 48 hours
  expression of all tested Notch signaling genes: did not significantly inhibit
[3]; 24 hours treatment (cell spans control and #C)
  NOTCH 4 mRNA expression: Undetected
[3]; 24 hours treatment
  HER2 mRNA expression (mean ± sem): 100 ± 11
  HES1 mRNA expression (mean ± sem): 102 ± 18
  HEY1 mRNA expression (mean ± sem): 121 ± 10
  NFKB1 mRNA expression (mean ± sem): 106 ± 11
  NFKB2 mRNA expression (mean ± sem): 85 ± 28 (3)
  NOTCH 1 mRNA expression (mean ± sem): 89 ± 10 (3)
  NOTCH 2 mRNA expression (mean ± sem): 103 ± 27
  NOTCH 3 mRNA expression (mean ± sem): 105 ± 14
  RBPJ mRNA expression (mean ± sem): 119 ± 37
[3]; 48 hours treatment
  HER2 mRNA expression (mean ± sem): 106 ± 23
  HES1 mRNA expression (mean ± sem): 115 ± 9 (4)
  HEY1 mRNA expression (mean ± sem): 115 ± 11
  NFKB1 mRNA expression (mean ± sem): 109 ± 12
  NFKB2 mRNA expression (mean ± sem): 97 ± 14 (4)
  NOTCH 1 mRNA expression (mean ± sem): 90 ± 9 (3)
  NOTCH 2 mRNA expression (mean ± sem): 94 ± 40 (3)
  NOTCH 3 mRNA expression (mean ± sem): 81 ± 23 (4)
  RBPJ mRNA expression (mean ± sem): 97 ± 7 (4)
